Results as given in the Biogen ADME set (Fang et al. 2023).
Converted amounts (≈) assume the structure as drawn.

Details: for aqueous solubility: pH 6.8

SMILES | MDR1-MDCK efflux ratio | intrinsic clearance, human liver microsomes [mL/min/kg] | intrinsic clearance, rat liver microsomes [mL/min/kg] | fraction unbound, human plasma | fraction unbound, rat plasma | aqueous solubility [µg/mL]
Cc1cccc(N(C)Cc2cnc(N(C)C)nc2)n1 | 0.769 | 57.7 | 1770 |  |  | 
Cc1ccc(=O)n(CCOc2cc(F)cc(Br)c2)n1 | 0.596 | 140 | 901 |  |  | 
Cn1c(C2CC2)nc2c1CCN(c1ncnc3ccsc13)C2 |  | 31.9 | 1090 | 0.173 | 0.156 | 50.4 (≈ 162 µM)
O=C(NCc1ccccc1)c1ccc(NS(=O)(=O)c2ccc(C3CCCCC3)cc2)cc1 | 2.69 | 81 | 402 |  |  | 1.57 (≈ 3.5 µM)
Cc1ccc(F)cc1CNc1cc(C(=O)N(C)C)ccn1 | 1.06 | 11.1 | 399 |  |  | 47.4 (≈ 165 µM)
Cc1cc(C)cc(Oc2cc(C#N)ccn2)c1 | 0.559 | 48 | 214 |  |  | 9.73 (≈ 43.4 µM)
C#CCNC(=O)c1ccc2c(c1)OCO2 | 0.809 | 14 | 34.4 |  |  | 26 (≈ 128 µM)
CC(=O)NCc1ccc(-c2ccccc2C(=O)O)cc1 |  |  |  |  |  | 31.2 (≈ 116 µM)
COCCOc1cnc2ccn([C@H](C)c3nnc4c(F)cc(-c5cnn(C)c5)cn34)c(=O)c2c1 | 126 | 6.14 | 25.1 |  |  | 
COc1cc2c(c(OC)c1OC)CCNC(=O)C2 |  | ≤ 4.74 | ≤ 10.7 |  |  | 49.6 (≈ 198 µM)
O=c1oc2cccnc2n1Cc1ncc(-c2ccc(F)cc2)o1 | 2.86 | ≤ 4.74 | ≤ 10.7 |  |  | 
N#Cc1cc(F)c(NS(=O)(=O)c2c[nH]c3cc(Cl)ccc23)cc1F | 2.57 | ≤ 4.74 |  | 0.0094 | 0.0056 | 66.1 (≈ 180 µM)
Cc1occc1C(=O)NCC(=O)Nc1nc2cc(Cl)ccc2n1C | 1.31 | 9.49 | 195 |  |  | 27.2 (≈ 78.4 µM)
Cc1cccc(NC(=O)c2cccnc2N2CCCCC2)n1 | 0.697 | 120 | 1670 |  |  | 27.6 (≈ 93.1 µM)
COC(=O)N[C@H](C)CNc1nccc(-c2cn(C(C)C)nc2-c2cc(Cl)cc(NS(C)(=O)=O)c2F)n1 | 129 | 14.7 | 66.5 |  |  | 
C=CCN(c1ccc(C(=O)OC)cc1)S(=O)(=O)c1ccccc1 |  |  |  |  |  | 2.24 (≈ 6.76 µM)
Cc1cn[nH]c1C1(C)CCN(Cc2cnn(C)c2)CC1 | 22.6 | ≤ 4.74 | 79.1 |  |  | 28.4 (≈ 104 µM)
CC(C)(C)c1csc(NC(=O)C2CC2)n1 | 0.634 | 20.2 | 89 |  |  | 29.2 (≈ 130 µM)
COc1ncccc1C(=O)Nc1nc(C)nn1C | 0.585 | ≤ 4.74 | ≤ 10.7 |  |  | 
Cc1cc(Oc2cnccn2)ccc1N |  | ≤ 4.74 | 31.2 |  |  | 21.9 (≈ 109 µM)
COc1cccc(CN2CCc3nc(-c4cnc(C)cn4)nc(O)c3C2)c1 |  | ≤ 4.74 | 38.2 |  |  | 

SMILES | MDR1-MDCK efflux ratio | intrinsic clearance, human liver microsomes [mL/min/kg] | intrinsic clearance, rat liver microsomes [mL/min/kg] | fraction unbound, human plasma | fraction unbound, rat plasma | aqueous solubility [µg/mL]
N=C1/C(=C\c2ccco2)C(=O)N=C2Sc3ccccc3N12 |  |  |  |  |  | 0.73 (≈ 2.47 µM)
Fc1ccccc1-c1c[nH]nc1C1CCCN1Cc1ccc2ncccc2c1 (configuration not stated) | 2.26 | 400 | 1630 | 0.0351 | 0.0289 | 29.2 (≈ 78.4 µM)
C[C@@H](CN1CCC2(CC1)C(=O)NCN2c1cccc(F)c1)NC(=O)c1ccc(Br)cc1 |  | 88.8 | 312 |  |  | 3.85 (≈ 7.87 µM)
NC(=O)COc1ncnc2ccccc12 | 1.27 | ≤ 4.74 | ≤ 10.7 |  |  | 47.9 (≈ 235 µM)
CSCc1csc(NC(C)=O)n1 | 0.631 | 19.2 | 248 |  |  | 27.9 (≈ 138 µM)
Cc1cc(F)ccc1CC(=O)N[C@@H]1CCOC[C@H]1OCCO | 19.7 | ≤ 4.74 | ≤ 10.7 |  |  | 47.8 (≈ 153 µM)
COc1ccc(OC)c(S(=O)(=O)Nc2cccc(CCc3ccccn3)c2)c1 | 4.21 | 582 | 3140 |  |  | 39.8 (≈ 99.8 µM)
Cc1ccc(CN2CC[C@H](c3nnc(-c4ccccc4F)o3)C2)o1 | 0.493 | 27.7 | 790 |  |  | 45.4 (≈ 139 µM)
Cc1ccc(S(=O)(=O)N2CCCc3ccc(NS(=O)(=O)c4ccc(F)cc4C)cc32)cc1 |  | 186 | 2420 |  |  | 
Cc1cc(C)nc(NCc2cnc(C)c(C)c2)n1 | 0.622 | 12.5 | 162 |  |  | 13.3 (≈ 54.9 µM)
N=C(N)N/N=C/c1c(Cl)cccc1Cl | 0.543 | ≤ 4.74 | 77 |  |  | 50.3 (≈ 218 µM)
CNC(=O)CN(C)c1cccc(F)c1C#N | 0.738 | ≤ 4.74 | 15.2 |  |  | 34.1 (≈ 154 µM)
COCCc1noc(CN(C)C(=O)c2ccc3c(c2)CCC3)n1 | 0.812 | 10.4 | 263 |  |  | 
FC(F)(F)c1nccc(NCCSc2nc3ccccc3o2)n1 | 0.317 | 256 | 747 |  |  | 44.9 (≈ 132 µM)
Cc1cccc(N(C)C(=O)COC2CCCC2)n1 | 0.667 | 44.8 | 200 |  |  | 59.6 (≈ 240 µM)
Cc1cccc(OCC(=O)Nc2ccc3c(c2)C(=O)N(c2ccccc2)C3=O)c1 | 15.9 |  |  |  |  | 0.41 (≈ 1.06 µM)
CN1CCN(c2ccc(NC(=O)c3ccccc3Cl)nc2)CC1 | 0.523 | ≤ 4.74 | 349 |  |  | 45.8 (≈ 138 µM)
Cc1ccc(C(=O)N(C)Cc2c(C)noc2C)cn1 | 1.35 | ≤ 4.74 | ≤ 10.7 |  |  | 40.8 (≈ 157 µM)
O=C(NCc1ccc(F)cc1)c1ccccn1 | 0.543 | ≤ 4.74 | 21.1 |  |  | 34.8 (≈ 151 µM)
Cc1nc(NCc2cn(C)nc2-c2cccs2)n(C)n1 | 12.7 | ≤ 4.74 | 27.9 |  |  | 
